Data set [1] deals with CAL-27. The experiment in a line: Upregulation of hypoxia related gene in human CAL-27 cells at IC50 concentration incubated for 24 hrs by RNA sequencing analysis. Type of data set: functional, cell-based.
The subject of data set [2] is CAL-27. The experiment in a line: Downregulation of E2F gene in human CAL-27 cells at IC50 concentration incubated for 24 hrs by RNA sequencing analysis. Type of data set: functional, cell-based.
Data set [3] concerns CAL-27. The experiment in a line: Downregulation of mitotic spindle in human CAL-27 cells at IC50 concentration incubated for 24 hrs by RNA sequencing analysis. Type of data set: functional, cell-based.
The test system of data set [4] is CAL-27. Description: Antimigratory activity against human CAL-27 cells assessed as reduction in number of colonies at 14 uM replaced with fresh medium for every 2 days for 10 days by crystal violet staining based inverted microscopic analysis (reference value: 234). The format is functional. Particulars: time 10 day.
Data set [5] deals with CAL-27. The experiment in a line: Upregulation of KRAS signaling gene in human CAL-27 cells at IC50 concentration incubated for 24 hrs by RNA sequencing analysis. Type of data set: functional, cell-based.
For data set [6], the system named is CAL-27. Description: Upregulation of epithelial mesenchymal gene in human CAL-27 cells at IC50 concentration incubated for 24 hrs by RNA sequencing analysis. The format is functional, cell-based.
Data set [7] concerns CAL-27. The experiment in a line: Upregulation of IL2 STAT5 signaling gene in human CAL-27 cells at IC50 concentration incubated for 24 hrs by RNA sequencing analysis. The format is functional, cell-based.
The test system of data set [8] is CAL-27. The experiment in a line: Antimigratory activity against human CAL-27 cells assessed as reduction in gap closure at 14 uM after 24 hrs by scratch wound healing assay (reference value: 65.2%). The format is functional. Details: scale not given: the % may be the effect or the level left.
Data set [9] deals with CAL-27. The experiment in a line: Upregulation of glycolysis gene in human CAL-27 cells at IC50 concentration incubated for 24 hrs by RNA sequencing analysis. The format is functional, cell-based.
The test system of data set [10] is CAL-27. Description: Cytotoxicity against human CAL-27 cells assessed as reduction in cell viability incubated for 24 hrs by alamar blue assay. The note with it: CAL-27, 24 h. Type of data set: functional, cell-based.
In data set [11] the test system is CAL-27. Description: Induction of cell cycle arrest in human CAL-27 cells assessed as decrease in cells at S phase at IC50 concentration incubated for 24 hrs by propidium iodide staining based flow cytometric analysis (reference value: 23.97 %). More on the design: scale not given: the % may be the effect or the level left. Type of data set: functional. (Flow cytometry measures light scatter and fluorescence of single cells or particles in a stream.)

The subject of data set [12] is CAL-27. Description: Downregulation of KRAS signaling gene in human CAL-27 cells at IC50 concentration incubated for 24 hrs by RNA sequencing analysis. Type of data set: functional, cell-based.
Data set [13] relates to CAL-27. The experiment in a line: Cytotoxicity against human CAL-27 cells assessed as reduction in cell viability incubated for 72 hrs by alamar blue assay. The format is functional, cell-based. Particulars: CAL-27, 72 h.
Data set [14] deals with CAL-27. The experiment in a line: Upregulation of MTORC1 signaling gene in human CAL-27 cells at IC50 concentration incubated for 24 hrs by RNA sequencing analysis. The format is functional, cell-based.
A short description of data set [15]: Cytotoxicity against human normal oral epithelial cell assessed as reduction in cell viability incubated for 24 hrs by alamar blue assay. Type of data set: toxicity, cell-based. Particulars: normal oral epithelial cells. (In general: Alamar Blue is a resazurin reagent that responds to reducing activity.)
Data set [16] in a line: Induction of cell cycle arrest in human normal oral epithelial cell assessed as accumulation at G2/M phase at IC50 concentration incubated for 24 hrs by propidium iodide staining based flow cytometric analysis (reference value: 12.79 %). Type of data set: toxicity.
Data set [17] deals with CAL-27. Description: Upregulation of TNF-alpha signaling NF-kappaB gene in human CAL-27 cells at IC50 concentration incubated for 24 hrs by RNA sequencing analysis. Type of data set: functional, cell-based.
Data set [18] is described as follows: Induction of cell cycle arrest in human normal oral epithelial cell assessed as reduction in cells at S phase at IC50 concentration incubated for 24 hrs by propidium iodide staining based flow cytometric analysis (reference value: 31.85 %). Details: scale not given: the % may be the effect or the level left. Type of data set: toxicity.
In data set [19] the test system is CAL-27. The experiment in a line: Induction of cell cycle arrest in human CAL-27 cells assessed as accumulation at G1 phase at IC50 concentration incubated for 24 hrs by propidium iodide staining based flow cytometric analysis (reference value: 61.61 %). The format is functional.
Data set [20] deals with CAL-27. The experiment in a line: Downregulation of G2M checkpoint gene in human CAL-27 cells at IC50 concentration incubated for 24 hrs by RNA sequencing analysis. Type of data set: functional, cell-based.
Data set [21] relates to CAL-27. Description: Downregulation of MYC gene in human CAL-27 cells at IC50 concentration incubated for 24 hrs by RNA sequencing analysis. The format is functional, cell-based.
Data set [22] relates to CAL-27. Description: Downregulation of estrogen response gene in human CAL-27 cells at IC50 concentration incubated for 24 hrs by RNA sequencing analysis. Type of data set: functional, cell-based.
Data set [23] concerns CAL-27. Description: Downregulation of interferon gamma gene in human CAL-27 cells at IC50 concentration incubated for 24 hrs by RNA sequencing analysis. Type of data set: functional, cell-based.
Data set [24] concerns CAL-27. The experiment in a line: Cytotoxicity against human CAL-27 cells assessed as reduction in cell viability incubated for 48 hrs by alamar blue assay. The format is functional, cell-based. The note with it: CAL-27, 48 h.
In data set [25] the test system is CAL-27. The experiment in a line: Antimigratory activity against human CAL-27 cells at 14 uM after 24 hrs by scratch wound healing assay. The format is functional.
The nature of data set [26]: Induction of cell cycle arrest in human normal oral epithelial cell assessed as accumulation at G1 phase at IC50 concentration incubated for 24 hrs by propidium iodide staining based flow cytometric analysis (reference value: 55.49 %). The format is toxicity.
Data set [27] relates to CAL-27. Description: Upregulation of myogenesis gene in human CAL-27 cells at IC50 concentration incubated for 24 hrs by RNA sequencing analysis. The format is functional, cell-based.
Data set [28] concerns CAL-27. Description: Downregulation of MTORC1 signaling gene in human CAL-27 cells at IC50 concentration incubated for 24 hrs by RNA sequencing analysis. The format is functional, cell-based.
The subject of data set [29] is CAL-27. Description: Upregulation of apoptosis gene in human CAL-27 cells at IC50 concentration incubated for 24 hrs by RNA sequencing analysis. The format is functional, cell-based.
The test system of data set [30] is CAL-27. Description: Induction of cell cycle arrest in human CAL-27 cells assessed as accumulation at G2/M phase at IC50 concentration incubated for 24 hrs by propidium iodide staining based flow cytometric analysis (reference value: […]). The format is functional.
The subject of data set [31] is CAL-27. The experiment in a line: Upregulation of p53 pathway in human CAL-27 cells at IC50 concentration incubated for 24 hrs by RNA sequencing analysis. Type of data set: functional, cell-based.

Each structure is given as a SMILES string. Calls of active or inactive are those of the source. The rule behind the calls is not given here.

Regarding `O=c1[nH]c(/C=C/c2ccc(F)cc2)nc2ccccc12`, the outcome in the data set on CAL-27 [1], in the data set with CAL-27 [2], with CAL-27 [3], in the data set on CAL-27 [5], in the data set with CAL-27 [6] and with CAL-27 [7] was Active. The result in the data set on CAL-27 [9], with CAL-27 [12], with CAL-27 [14], in the data set with CAL-27 [17], in the data set on CAL-27 [20] and in the data set on CAL-27 [21] was Active. The result in the data set on CAL-27 [22], in the data set on CAL-27 [23], in the data set on CAL-27 [27], in the data set on CAL-27 [28], in the data set with CAL-27 [29] and with CAL-27 [31] was Active. Further, the Activity with CAL-27 [4] was found to be 158; with CAL-27 [8] it was 36%; in the data set with CAL-27 [11], 9.76%; in [16], 13.79%; in data set [18], 30.19%; with CAL-27 [19] it was 76.12%. Moreover, the Activity in the data set with CAL-27 [25] is recorded as 64%; in data set [26], 55.99%; with CAL-27 [30], 14.24%. Further, the IC50 (as a rule, the concentration that inhibits the measured activity by half) worked out at 12.9 µM in the data set with CAL-27 [10], 8 µM in the data set on CAL-27 [13] and 10 µM with CAL-27 [24]. Moreover, the IC50 at 24 h in [15] was 41.4 µM.

As for `COc1ccc(/C=C/c2nc3ccccc3c(=O)[nH]2)cc1`, in the data set on CAL-27 [10], the IC50 was determined as 14 µM. Further, the IC50 at 24 h in [15] is 13 µM.

Regarding `O=c1[nH]c(/C=C/c2c(F)c(F)c(F)c(F)c2F)nc2ccccc12`, the IC50 in the data set on CAL-27 [10] was determined as 13.6 µM. Also, the IC50 at 24 h in data set [15] was 17 µM.

In the case of `CN(C)c1ccc(/C=C/c2nc(O)c3ccccc3n2)cc1`, the IC50 in the data set with CAL-27 [10] is 13.6 µM. The IC50 at 24 h in data set [15] was 31 µM.

In the case of `N#Cc1ccc(/C=C/c2nc3ccccc3c(=O)[nH]2)cc1`, in the data set with CAL-27 [10], the half-maximal inhibitory concentration (IC50) came to 17 µM. Also, the IC50 at 24 h in data set [15] was determined as 25 µM.

In the case of `O=c1[nH]c(/C=C/c2ccc(Cl)cc2)nc2ccccc12`, the IC50 with CAL-27 [10] was determined as 15.6 µM. Further, the IC50 at 24 h in data set [15] turned out to be 17 µM.

Consider `C/C(=C\c1ccccc1)c1nc2ccccc2c(=O)[nH]1`, for which the IC50 with CAL-27 [10] was 8.6 µM. Besides, the IC50 at 24 h in [15] came to 15 µM.

Consider `O=c1[nH]c(/C=C/c2ccc([N+](=O)[O-])cc2)nc2ccccc12`, for which, in the data set on CAL-27 [10], the IC50 turned out to be 16 µM. In addition, the IC50 at 24 h in [15] was 12 µM.

As for `Cc1ccc(/C=C/c2nc(O)c3ccccc3n2)cc1`, the IC50 in the data set with CAL-27 [10] came to 14.6 µM. For the same molecule, the IC50 at 24 h in data set [15] turned out to be 14 µM.

Take `O=c1[nH]c(/C=C/c2cccs2)nc2ccccc12`: the IC50 in the data set with CAL-27 [10] is 11.3 µM. For the same molecule, the IC50 at 24 h in data set [15] was found to be 16.2 µM.

On to `O=c1[nH]c(/C=C/c2cccc(F)c2)nc2ccccc12`, for which the IC50 in the data set on CAL-27 [10] was determined as 16 µM. Besides, the IC50 at 24 h in data set [15] was 26 µM.
